The structures appear in SMILES notation.

Series [1] has as its system Myzus persicae. Put plainly: Myzus test (spray treatment). It counts as in vivo. The note with it: foliar, read-out: Wirkung. The source says: Myzus-Test (Spritzbehandlung)
Zur Herstellung einer zweckmäßigen Wirkstoffzubereitung vermischt man 1 Gewichtsteil Wirkstoff mit den angegebenen Mengen Lösungsmittel und Emulgator und verdünnt das Konzentrat mit emulgatorhaltigem Wasser auf die gewünschte Konzentration.
Chinakohlblattscheiben (Brassica pekinensis), die von allen Stadien der Grünen Pfirsichblattlaus (Myzus persicae) befallen sind, werden mit einer Wirkstoffzubereitung der gewünschten Konzentration gespritzt.
Nach der gewünschten Zeit wird die Wirkung in % bestimmt. Dabei bedeutet 100 %, dass alle Blattläuse abgetötet wurden; 0 % bedeutet, dass keine Blattläuse, abgetötet wurden.

Series [2] in a line: logP determination (acidic, formic acid).
For series [3], the system named is Myzus persicae. Put plainly: Myzus test - oral. It is filed as in vivo. To be noted: read-out: Wirkung. The text has this:
Lösungsmittel: 80,0 Gewichtsteile Aceton
Zur Herstellung einer zweckmäßigen Wirkstoffzubereitung vermischt man 1 Gewichtsteil Wirkstoff mit den angegebenen Mengen Lösungsmittel und verdünnt das Konzentrat mit Wasser auf die gewünschte Konzentration.
Gefäße werden mit allen Stadien der Grünen Pfirsichblattlaus (Myzus persicae) besetzt, durch saugen an der Wirkstoffzubereitung der gewünschten Konzentration wird behandelt.
Nach der gewünschten Zeit wird die Wirkung in % bestimmt. Dabei bedeutet 100 %, dass alle Blattläuse abgetötet wurden; 0 % bedeutet, dass keine Blattläuse abgetötet wurden.

The nature of series [4]: physchem. The note with it: formic acid.
The mark [5] stands for this setting: 500 g/ha, spray on infested Brassica pekinensis leaf discs, 100 % = all aphids killed.
Setting [6] is: 500 g/ha, oral uptake by sucking on the active compound preparation, 100 % = all aphids killed.

In the case of `Clc1cc2c(s1)C(N=C1NCCO1)CC2` (stereo not shown) [Beispiel 18], the mortality at 500 g/ha in series [1] (setting [5]) is not below 80%.
On the same count and under the same terms, as for `CNC(=S)N1CCOC1=NC1CCc2cc(Cl)sc21` (stereo not shown) [Beispiel 19], the figure is not below 80%.
`O=C(NCCCl)NC1CCc2ccsc21` (stereo not shown) [Beispiel 1, 1-(2-Chloroethyl)-3-(5,6-dihydro-4H-cyclopenta[b]thien-6-yl)-harnstoff] had a logP in series [2] (formic acid) of 1.77.
`CNC(=S)N1CCOC1=NC1CCc2ccsc21` (stereo not shown) [Beispiel 7]: the mortality at 500 g/ha in series [1] (setting [5]) was not below 80%.
Take `CCOC(=O)CNC(=S)N1CCOC1=NC1CCc2cc(C)cnc21` (stereo not shown) [Beispiel 47]: the mortality at 500 g/ha in series [3] (setting [6]) is not below 80%.
As for `O=C(NCCCl)NC1CCc2ncccc21` (stereo not shown) [Beispiel 4, 1-(2-Chloroethyl)-3-(6,7-dihydro-5H-cyclopenta[b]pyridin-5-yl)-harnstoff], the logP in series [2] (acidic) turned out to be 0.23.
Take `CCOC(=O)CNC(=S)N1CCOC1=NC1CCc2ccsc21` (stereo not shown) [Beispiel 14]: the mortality at 500 g/ha in series [1] (setting [5]) was not below 80%.
For the molecule `Cc1cnc2c(c1)CCC2N=C1NCCO1` (stereo not shown) [Beispiel 43], the mortality at 500 g/ha in series [3] (po) was not below 80%.
`CNC(=S)N1CCOC1=NC1CCc2cc(C)cnc21` (stereo not shown) [Beispiel 44]: in series [3] (setting [6]), the mortality at 500 g/ha was not below 80%.
`COCCNC(=S)N1CCO/C1=N\C1CCc2ncccc21` (stereo not shown) [Beispiel 6, (2Z)-2-(6,7-Dihydro-5H-cyclopenta[b]pyridin-5-ylimino)-N-(2-methoxyethyl)-1,3-oxazolidine-3-carbothioamid]: in series [1] (setting [5]), the mortality at 500 g/ha is not below 80%. In series [2] (acidic), this molecule showed a logP of 1.03.
As to `CNC(=S)N1CCOC1=NC1CCc2ncccc21` (stereo not shown) [Beispiel 30], in series [1] (setting [5]), the mortality at 500 g/ha is not below 80%.
In the case of `COCCNC(=S)N1CCO/C1=N\C1CCc2ccsc21` (stereo not shown) [Beispiel 3, (2Z)-2-(5,6-Dihydro-4H-cyclopenta[b]thien-6-ylimino)-N-(2-methoxyethyl)-1,3-oxazolidine-3-carbothioamid], in series [1] (setting [5]), the mortality at 500 g/ha is not below 80%. For the same molecule, the logP in series [2] (acidic) was determined as 3.32.
Take `c1cc2c(s1)C(NC1=NCCO1)CC2` (stereo not shown) [Beispiel 2, N-(5,6-Dihydro-4H-cyclopenta[b]thien-6-yl)-4,5-dihydro-1,3-oxazol-2-amin]: the mortality at 500 g/ha in series [1] (in Brassica rapa) was not below 80%. The molecule further yielded a logP in series [4] of 0.42.

As a reminder, the logP is a log measure of how a compound divides between an organic and an aqueous phase.

Values taken from patent publication EP2014168A1, “Insecticidal heterocyclic compounds” (priority 2007, dated 2009).
